Test results as given in ChEMBL document CHEMBL1129025, “Molecular basis of peripheral vs central benzodiazepine receptor selectivity in a new class of peripheral benzodiazepine receptor ligands related to alpidem” (J Med Chem, 1996).

These molecules were tested against T1, Translocator protein (Rattus norvegicus, UniProt P16257) (assay: Displacement of [3H]-PK11195 from rat kidney peripheral benzodiazepine receptor (type 2)).
T1 sequence (P16257 whole entry, looked up): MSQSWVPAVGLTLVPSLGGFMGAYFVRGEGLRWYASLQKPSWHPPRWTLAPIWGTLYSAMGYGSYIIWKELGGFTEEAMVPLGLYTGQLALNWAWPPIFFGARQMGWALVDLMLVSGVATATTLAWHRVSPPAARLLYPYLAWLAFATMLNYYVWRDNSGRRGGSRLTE
`CN(C(=O)/C=C1\c2nc3ccccc3cc2C(=O)N1c1ccc(Cl)cc1)c1ccc(Cl)cc1` was tested, and the IC50 was 140 nM.

Each molecule was assayed against T1, Translocator protein (assay: Displacement of [3H]PK11195 from rat cerebral cortex peripheral benzodiazepine receptor (type 2)).
Assay type: tissue-based
`CCCN(CCC)C(=O)/C=C1\c2nc3ccccc3cc2C(=O)N1c1ccc(Cl)cc1` was tested, and the IC50 was 210 nM.
Molecule `COc1ccc(N(C)C(=O)/C=C2\c3nc4ccccc4cc3C(=O)N2c2ccc(Cl)cc2)cc1` has an IC50 of 320 nM.
Work on `CN(C(=O)/C=C1\c2nc3ccccc3cc2C(=O)N1c1ccc(Cl)cc1)c1ccc(Cl)cc1` yielded an IC50 of 610 nM.

The molecules below were run against GABA-A receptor; anion channel (assay: Binding affinity against central benzodiazepine receptor(CBR).).
Assay type: protein-complex assay
`CCCN(CCC)C(=O)/C=C1\c2nc3ccccc3cc2C(=O)N1c1ccc(Cl)cc1` gave an IC50 greater than 1000 nM.
In the case of `CCCCCCN(CCCCCC)C(=O)/C=C1\c2ncccc2C(=O)N1c1ccc(Cl)cc1`, the IC50 is reported as greater than 1000 nM.
`CCCN(CCC)C(=O)CC1c2nc3ccccc3cc2C(=O)N1c1ccc(Cl)cc1` (centres undefined) showed an IC50 greater than 1000 nM.
`O=C1c2cccnc2CN1c1ccc(Cl)cc1` showed an IC50 greater than 1000 nM.
In the case of `CCCN(CCC)C(=O)CC1c2ncccc2C(=O)N1c1ccc(Cl)cc1` (centres undefined), the IC50 is reported as 860 nM.
In the case of `CCCCCCN(CCCCCC)C(=O)/C=C1\c2nc3ccccc3cc2C(=O)N1c1ccc(Cl)cc1`, the IC50 is reported as greater than 1000 nM.
In the case of `CCCN(CCC)C(=O)Cc1c(-c2ccc(Cl)cc2)nc2ccc(Cl)cn12` [ALPIDEM], the IC50 is reported as 28 nM.
In the case of `CCCN(CCC)C(=O)/C=C1\c2ncccc2C(=O)N1c1ccc(Cl)cc1`, the IC50 is reported as greater than 1000 nM.
Work on `CCCCCCN(CCCCCC)C(=O)CC1c2nc3ccccc3cc2C(=O)N1c1ccc(Cl)cc1` (centres undefined) yielded an IC50 greater than 1000 nM.
`CN1CCN(C(=O)OC2c3nccnc3C(=O)N2c2ccc(Cl)cn2)CC1` (centres undefined) [ZOPICLONE] showed an IC50 of 29 nM.
Molecule `CCCCCCN(CCCCCC)C(=O)CC1c2ncccc2C(=O)N1c1ccc(Cl)cc1` (centres undefined) has an IC50 greater than 1000 nM.

Each molecule was assayed against T1, Translocator protein (assay: Displacement of [3H]PK11195 from rat kidney peripheral benzodiazepine receptor (type 1)).
In the case of `CCCN(CCC)C(=O)/C=C1\c2nc3ccccc3cc2C(=O)N1c1ccc(Cl)cc1`, the IC50 is reported as 2.7 nM.
With `COc1ccc(N(C)C(=O)/C=C2\c3nc4ccccc4cc3C(=O)N2c2ccc(Cl)cc2)cc1` the IC50 was 0.7 nM.
With `CN(C(=O)/C=C1\c2nc3ccccc3cc2C(=O)N1c1ccc(Cl)cc1)c1ccc(Cl)cc1` the IC50 was 1.1 nM.

What follows are molecules tested against T1, Translocator protein (assay: Displacement of [3H]Ro-5-4864 from rat kidney peripheral benzodiazepine receptor).
In the case of `CCCN(CCC)C(=O)/C=C1\c2nc3ccccc3cc2C(=O)N1c1ccc(Cl)cc1`, the IC50 is reported as 150 nM.
`COc1ccc(N(C)C(=O)/C=C2\c3nc4ccccc4cc3C(=O)N2c2ccc(Cl)cc2)cc1` was tested, and the IC50 was 1.7 nM.
`CN(C(=O)/C=C1\c2nc3ccccc3cc2C(=O)N1c1ccc(Cl)cc1)c1ccc(Cl)cc1` showed an IC50 of 2 nM.

Each molecule was assayed against T1, Translocator protein (assay: Displacement of [3H]Ro-5-4864 from rat cerebral cortex peripheral benzodiazepine receptor).
Assay type: tissue-based
`CCCN(CCC)C(=O)/C=C1\c2nc3ccccc3cc2C(=O)N1c1ccc(Cl)cc1` was tested, and the IC50 was 120 nM.
Molecule `COc1ccc(N(C)C(=O)/C=C2\c3nc4ccccc4cc3C(=O)N2c2ccc(Cl)cc2)cc1` has an IC50 of 2.3 nM.
With `CN(C(=O)/C=C1\c2nc3ccccc3cc2C(=O)N1c1ccc(Cl)cc1)c1ccc(Cl)cc1` the IC50 was 4.5 nM.

These molecules were tested against T1, Translocator protein (assay: Displacement of [3H]PK11195 from rat kidney peripheral benzodiazepine receptor (type 2)).
`CCCN(CCC)C(=O)/C=C1\c2nc3ccccc3cc2C(=O)N1c1ccc(Cl)cc1` was tested, and the IC50 was 160 nM.
`COc1ccc(N(C)C(=O)/C=C2\c3nc4ccccc4cc3C(=O)N2c2ccc(Cl)cc2)cc1` showed an IC50 of 14 nM.

Each molecule was assayed against T1, Translocator protein (assay: Binding affinity against peripheral benzodiazepine receptor( PBR).).
`CCCN(CCC)C(=O)C=C1c2nc3ccccc3cc2C(=O)N1c1ccc(Cl)cc1` gave an IC50 greater than 1000 nM.
`CCCN(CCC)C(=O)/C=C1\c2nc3ccccc3cc2C(=O)N1c1ccc(Cl)cc1` showed an IC50 of 40 nM.
In the case of `CCCCCCN(CCCCCC)C(=O)/C=C1\c2ncccc2C(=O)N1c1ccc(Cl)cc1`, the IC50 is reported as 33000 nM.
`CCCN(CCC)C(=O)CC1c2nc3ccccc3cc2C(=O)N1c1ccc(Cl)cc1` (centres undefined) was tested, and the IC50 was greater than 1000 nM.
With `O=C1c2cccnc2CN1c1ccc(Cl)cc1` the IC50 was greater than 1000 nM.
Molecule `CCCN(CCC)C(=O)CC1c2ncccc2C(=O)N1c1ccc(Cl)cc1` (centres undefined) has an IC50 greater than 1000 nM.
In the case of `CCCCCCN(CCCCCC)C(=O)/C=C1\c2nc3ccccc3cc2C(=O)N1c1ccc(Cl)cc1`, the IC50 is reported as 150 nM.
`CCCN(CCC)C(=O)Cc1c(-c2ccc(Cl)cc2)nc2ccc(Cl)cn12` [ALPIDEM] showed an IC50 of 7 nM.
`CCN(Cc1ccccc1)C(=O)/C=C1\c2nc3ccccc3cc2C(=O)N1c1ccc(Cl)cc1` was tested, and the IC50 was greater than 1000 nM.
`CCCN(CCC)C(=O)/C=C1\c2ncccc2C(=O)N1c1ccc(Cl)cc1` showed an IC50 of 290 nM.
`CCCCCCN(CCCCCC)C(=O)CC1c2nc3ccccc3cc2C(=O)N1c1ccc(Cl)cc1` (centres undefined) was tested, and the IC50 was greater than 1000 nM.
With `COc1ccc(N(C)C(=O)/C=C2\c3nc4ccccc4cc3C(=O)N2c2ccc(Cl)cc2)cc1` the IC50 was 1.9 nM.
With `CCCCCCN(CCCCCC)C(=O)CC1c2ncccc2C(=O)N1c1ccc(Cl)cc1` (centres undefined) the IC50 was 1600 nM.
`CN(Cc1ccccc1)C(=O)/C=C1\c2nc3ccccc3cc2C(=O)N1c1ccc(Cl)cc1` showed an IC50 greater than 1000 nM.
Molecule `CN(C(=O)/C=C1\c2nc3ccccc3cc2C(=O)N1c1ccc(Cl)cc1)c1ccc(Cl)cc1` has an IC50 of 32 nM.

Each molecule was assayed against T1, Translocator protein (assay: Displacement of [3H]PK11195 from rat cerebral cortex peripheral benzodiazepine receptor (type 1)).
Assay type: tissue-based
Molecule `CCCN(CCC)C(=O)/C=C1\c2nc3ccccc3cc2C(=O)N1c1ccc(Cl)cc1` has an IC50 of 4.9 nM.
For `COc1ccc(N(C)C(=O)/C=C2\c3nc4ccccc4cc3C(=O)N2c2ccc(Cl)cc2)cc1`, the IC50 was 9.8 nM.
`CN(C(=O)/C=C1\c2nc3ccccc3cc2C(=O)N1c1ccc(Cl)cc1)c1ccc(Cl)cc1` gave an IC50 of 2.4 nM.
